According to ChEMBL document CHEMBL3507680, “University of Dundee, Gates Library screen for HepG2 cell viability”:

Test: Human HepG2 cell viability assay in 384 well format
Assay type: toxicity, cell-based
Set-up: dose 125 nL, time 70.5 hour; cytotoxicity at 70.5 h: concentration not given beside the values
Conditions: HepG2 cells, read-out: Inhibition

Row | Compound | cytotoxicity at 70.5 h
1 | CC(C)C1CN(S(=O)(=O)c2cccc(C#N)c2)CCS1 (stereo unspecified) | 8.4%
2 | N#Cc1cccc(C(=O)N2CCC3(CCC(=O)N(C4CC4)C3)CC2)c1 | 6.81%
3 | CCN1C(=O)[C@H]2CN(Cc3cccnc3)C[C@H]2C12CCN(C(C)=O)CC2 | -10.7%
4 | O=C1Nc2ccccc2/C1=C1\CCCN1 | -1.25%
5 | COc1ccc(C(=O)NCc2ccc(C(=O)O)o2)cc1 | 27.3%
6 | CC(C)[C@@H]1CN(S(=O)(=O)Cc2ccccc2)C[C@H]1NS(=O)(=O)N(C)C | -2.27%
7 | CCSc1nc(N)c(NC(=O)c2ccc(OC)c(OC)c2)c(=O)[nH]1 | 11.2%
8 | CN(C)c1cc(C(=O)N2CCN(c3cnccn3)CC2)ccn1 | -13.9%
9 | CNC(=O)c1cn[nH]c1C1CCN(Cc2ccccc2F)C1 (stereo unspecified) | -3.84%
10 | Cc1nccc(C(=O)NC(CN2CCCC2=O)c2ccccc2)n1 (stereo unspecified) | -3.75%
11 | Cc1ccc(NC2CCN(C(=O)CCn3nc(C)cc3C)CC2)nn1 | -14.3%
12 | CC(C)C(=O)N1CC[C@H]2N(C)CC[C@@]2(C(=O)N2CCCC2)CC1 | -7.87%
13 | CSc1ccc(C(=O)N2CC(=O)N(Cc3cccs3)CC(O)C2)cc1 (stereo unspecified) | -6.27%
14 | O=C(CNC1CCc2ncnn2C1)N(Cc1cccs1)C1CC1 (stereo unspecified) | 0.341%
15 | O=C(NCc1ccco1)[C@H]1C[C@@H]2CCN(c3cccc(F)c3)C[C@H]2O1 | -5.03%
16 | Fc1cnc(N2CCO[C@H]3CN(CC4CCCC4)C[C@H]32)nc1 | -13%
17 | CN1CCN(c2ccc(NCc3ccc([S+](C)[O-])cc3)cn2)CC1 (stereo unspecified) | -0.416%
18 | N#Cc1cnc2ccccc2c1N1CCNCC1 | -1.59%
19 | c1cncc(-n2cnnc2CCCN2CCOCC2)c1 | 1.35%
20 | Cn1cc(CCC(=O)NS(=O)(=O)N2CCCc3ccccc32)cn1 | -8.12%
21 | Cc1ccc2nnc(C(=O)NCC3CCCC3)nc2c1 | -0.847%
22 | Cc1cc(N)nc(SC2CCCN(Cc3ccccc3)C2=O)n1 (stereo unspecified) | -9.67%
23 | Cn1cc(C(=O)NCc2ccc(N3CCNC(=O)C3)c(F)c2)cn1 | -4.04%

Row | Compound | cytotoxicity at 70.5 h
24 | c1cc2c(cc1-c1noc3c1CN(C1CCSC1)CC3)OCO2 (stereo unspecified) | -12.7%
25 | Cn1c(C(N)=O)cc2c1CN(C(=O)C1CCCN(C3CCCC3)C1)CC2 (stereo unspecified) | -7.9%
26 | CCC(C)[C@H](N)c1nnc(SCC(=O)Nc2ccc(C)cc2C)o1 (stereo partly specified) | 0.595%
27 | CS(=O)(=O)c1nnc(NC(=O)CCc2cccc(Cl)c2)[nH]1 | -7.49%
28 | O=C1C[C@H]2[C@@H](CCN2C(=O)c2ccccc2)N1CCN1CCOCC1 | -5.41%
29 | O=C(NCCNc1ncccn1)N1CCc2ccccc2C1 | 8.69%
30 | CNC(=O)[C@@H]1COC[C@H]2CN(C(=O)COc3ccccc3)C[C@H]21 | -1.14%
31 | CN(CCn1ccc2ccccc21)C(=O)Cc1nnn[nH]1 | 17.9%
32 | FC(F)(F)Cn1cc(NCc2cscn2)cn1 | -5.23%
33 | CN(C)CCOCC1CN(C(=O)N2CCCC2)Cc2ccnn2C1 (stereo unspecified) | -5.66%
34 | Cn1ccc(C(=O)NCCOc2ccc3c(c2)OCO3)cc1=O | -6.82%
35 | CN(C)C(=O)CCCNc1ncc2c(n1)CCN2c1ccccc1 | -7.97%
36 | Cc1nc(CN2CCCC(CCc3ccccc3C(F)(F)F)C2)co1 (stereo unspecified) | 22.6%
37 | COCc1cc(CNC(=O)c2c(C)cc(C)[nH]c2=O)n[nH]1 | -1.97%
38 | Cc1cc(C(=O)NCCN2CCCCCC2)nn1C(C)(C)C | -4.89%
39 | Cc1cccc(NCc2nn(C)c(=O)[nH]2)c1 | -11%
40 | NC(=O)NC(=O)C(c1ccccc1)N1CCN(Cc2ccc(Cl)s2)CC1 (stereo unspecified) | -3.49%
41 | Cc1oc(-c2nc(C#N)c(NCC(C)C)o2)cc1S(=O)(=O)N1CCCC1 | -13.1%
42 | CN(Cc1ncnn1C)C(=O)c1ccccc1NCc1ccccc1 | 8.8%
43 | O=C(C1CCCC1)N1CCO[C@H]2[C@H](OCC3CCOCC3)CC[C@@H]21 | -5.12%
44 | Cc1nc(C)n(CC2CCCN(Cc3nnc(C(C)(C)C)o3)C2)n1 (stereo unspecified) | -0.371%
45 | Cc1cc(C)c2c(OCC(=O)N(C)CC(=O)NC(C)C)nn(C)c2n1 | -19.9%
46 | Cc1ccc(NC2CCN(C(=O)COc3cccnc3)CC2)nn1 | 22%

Row | Compound | cytotoxicity at 70.5 h
47 | c1cnnc(N2CCCC2CNCc2csc(-c3ccco3)n2)c1 (stereo unspecified) | -11.5%
48 | COc1cccc(COCC(=O)N2CCCC(n3ccnc3)C2)c1 (stereo unspecified) | -11.9%
49 | N#Cc1cccc(NC2CC(=O)N(CCCc3ccccc3)C2)n1 (stereo unspecified) | -19.4%
50 | Cn1ccnc1SCCNC1CCN(c2nc3ccccc3s2)CC1 | -1.58%
51 | Cn1cc(CNc2ccc(CCN3CCC(C(N)=O)CC3)cc2)cn1 | 13.6%
52 | NC(=O)C(NC(=O)Cc1cnn(-c2ccccc2)n1)c1ccccc1 (stereo unspecified) | -0.915%
53 | CC1CCN(c2cncc(CCC3CCCN3)n2)CC1 (stereo unspecified) | -8.58%
54 | CCc1ccccc1OC1CN(CC2CCOC2)C1 (stereo unspecified) | 29.4%
55 | COCCNC(=O)CCn1ncc2c(Cl)cccc21 | 16.6%
56 | COc1ccc2cc(NC(=O)CCNc3ncccn3)cnc2c1 | -29.1%
57 | CC(O)CN1CCC(CN(C)Cc2cccc(C(=O)N(C)C)c2)CC1 (stereo unspecified) | 12.1%
58 | COC(=O)NCCC(=O)NC(C)Cc1cccc(Br)c1 (stereo unspecified) | 2.65%
59 | O=S(=O)(Cc1nc(C2CC2)no1)c1ccccc1F | -11.9%
60 | Cc1cnc(NC(=O)N2CCOCC2)s1 | -2.62%
61 | COCc1noc(-c2nn(-c3ccccc3F)c3c2CCC3)n1 | -6.39%
62 | Cc1ccc(N2CCCC(N(C)Cc3nnc(C4CC4)o3)C2)nn1 (stereo unspecified) | -5.49%
63 | O=C(CCCc1ccccn1)N1CCOc2ccc(F)cc21 | 1.36%
64 | O=C1C[C@H]2[C@@H](CCN2Cc2ccccn2)N1CCN1CCOCC1 | 6.45%
65 | CC(C)N(C(=O)Cn1nc2n(c1=O)CCCCC2)C1CCC1 | -9.98%
66 | CCc1nnc2n1CCN(C(C(=O)NC1CC1)c1ccccc1)C2 (stereo unspecified) | -7.08%
67 | COCCN1C[C@@H]2CN(Cc3ccoc3)CCC[C@]2(C(=O)O)C1 | -1.11%
68 | CCn1nc(C)cc1C(=O)N1C[C@@H](CN(C)C)[C@@H](CO)C1 | -2.98%
69 | Cc1cnc(Nc2cccc(C3CCCN3C(=O)CO)n2)s1 (stereo unspecified) | -6.4%

Row | Compound | cytotoxicity at 70.5 h
70 | CN1CCCCC[C@@H]2[C@@H]1[C@H](c1ccccc1)CN2C(=O)c1ccccn1 | -1.6%
71 | CCC(O)CN1CCN(C(=O)C2(c3ccc(C)c(OC)c3)CC2)CC1 (stereo unspecified) | 4.09%
72 | Cc1nn(CC(=O)N2CCN(c3ccncc3)CC2)c(C)c1Cl | 1.17%
73 | COCCCC(=O)N(C)c1ccc(F)c(Cl)c1 | -8.74%
74 | CN(C)C(=O)c1cccc(Nc2cnn(C)c2)c1 | -3.59%
75 | Cc1ccc(CN2CC3(CCN(S(=O)(=O)c4ccccc4)C3)C2)o1 | 24.3%
76 | Cc1nc2c(c(N[C@@H](CO)C(N)=O)n1)Cc1ccccc1OC2 | -9.03%
77 | COCCn1c2c(ccc1=O)CC(NC(=O)c1cscn1)CC2 (stereo unspecified) | -4.76%
78 | CCOCc1ncn2c1CN(S(=O)(=O)c1ccc(C)cc1)CC2 | 35.9%
79 | c1cncc(CN2CCOC(c3ncn4c(C5CC5)cccc34)C2)c1 (stereo unspecified) | -3.57%
80 | Cc1cc(C(=O)N2CCCC(c3noc(C)n3)C2)[nH]n1 (stereo unspecified) | 34.4%
81 | CN(C)CC1(O)CCN(C(=O)Cc2ccc3c(c2)CCCC3)C1 (stereo unspecified) | -7%
82 | Cc1cnc(C(=O)N2C[C@H]3CC[C@@H]2CN(c2cnccn2)C3)cn1 | -2.4%
83 | O=C1CC(c2ccc(C(=O)O)cc2)c2ncn(-c3ccccc3)c2N1 (stereo unspecified) | -6.45%
84 | Cc1nc(S(=O)(=O)CCn2cccn2)n(CC2CCCO2)c1C (stereo unspecified) | -2.87%
85 | COc1ccc(C)cc1C(=O)NC(CC(=O)O)c1cccs1 (stereo unspecified) | -11.4%
86 | CNC(=O)[C@@H]1CC[C@@H]2[C@@H](CCN2C(=O)N(C)C)O1 | -0.00257%
87 | CCSCc1ccc(C(=O)N2CCCN(CC)CC2)cc1 | -10.3%
88 | CCN(CC)C(=O)CCc1c(C)nc2cc(O)nn2c1C | -3.01%
89 | COCC1CN(c2ncccn2)Cc2cnn(CC3CC3)c21 (stereo unspecified) | -6.23%
90 | Cc1nc2c(N(C)Cc3ccnn3C)nc(N)nc2n1C | 0.962%
91 | CC(C)Nc1cccc(CNC(=O)N2CCCC2)c1 | -5.5%
92 | O=C([C@@H]1CCO[C@@H]2CCN(CC3CCOCC3)C[C@H]21)N1CCCC1 | -12.7%

Row | Compound | cytotoxicity at 70.5 h
93 | Cc1cc(C)n(CCN(C)c2ccc(-c3nc(C4CC4)no3)cn2)n1 | 10.5%
94 | CC1CCc2n[nH]c(C(=O)NCCc3ccco3)c2C1 (stereo unspecified) | -2.98%
95 | O=C(CCO)N[C@H]1CN(CC2CCC2)C[C@@H]1c1ccccc1 | -3.06%
96 | CC(=O)NC1CCN(c2c(C#N)cnc3c(C)cc(F)cc23)CC1 | 0.242%
97 | Cc1cc(C)n(CC2CN(CC(=O)NC3CCCC3)CCO2)n1 (stereo unspecified) | 18.5%
98 | Cc1c(NC(=O)C(C)N(C)C)c(=O)n(-c2ccccc2)n1C (stereo unspecified) | -1.07%
99 | CC(C)Cc1nc(CN2CC(=O)N(C)c3ccccc3C2=O)no1 | 2.18%
100 | CN(C)Cc1cccc(C(=O)N2CCCC(n3cncn3)C2)c1 (stereo unspecified) | -12.1%
101 | c1cc(CCN2CCN(c3ccc4nncn4n3)CC2)ccn1 | -11.9%
102 | CC(=O)N1CCN(C(=O)NCc2csc(Br)c2)CC1 | -9.87%
103 | CC(=O)N1[C@H](Cn2cncn2)C[C@@H]2CN(C(=O)c3ccoc3)CC[C@@H]21 | -6.21%
104 | CCc1oc2ccc(NS(=O)(=O)CC)cc2c1C(=O)OC | -5.49%
105 | CC(C)c1noc(CCNC(=O)N2CCN(c3cccs3)CC2)n1 | 40.3%
106 | CCC[C@@H]1CN(Cc2cc(C#N)n(C)c2C)C[C@H]1NS(C)(=O)=O | -6.42%
107 | O=C(CCNc1ncc2c(n1)CCN2c1ccccc1)N1CCCC1 | -9.59%
108 | Cc1cccc(CN2CC3(CCN(C(=O)N(C)C)CC3)OCC2=O)n1 | -0.965%
109 | CN1[C@@H](C(=O)NCC2CC2)C[C@H]2CN(Cc3ccsc3)C[C@H]21 | 12.6%
110 | Nc1ncncc1-c1noc([C@@H]2CCCN2CC2CC2)n1 | 9.61%
111 | O=C(c1ccccn1)N1CCC2(CC1)COC(COCC1CC1)C2 (stereo unspecified) | -8.98%
